Tests used:
β3GlcNAcT = β3GlcNAcT acceptor specificity (relative enzyme activity); type: biochemical, N. meningitidis; settings: substance used as acceptor substrate; Galβ(1-4)Glc = 100
Description: The inventors have previously cloned and characterized the bacterial N. meningitidis enzymes β4GalT-GalE and β3GlcNAcT. Blixt, O.;Brown, J.;Schur, M.;Wakarchuk, W. and Paulson, J. C., J. Org. Chem. 2001, 66, 2442-2448; Blixt, O.;van Die, I.;Norberg, T. and van den Eijnden, D. H., Glycobiol. 1999, 9, 1061-1071. β4GalT-GalE is a fusion protein constructed from β4GalT and the uridine-5'-diphospho-galactose-4'-epimerase (GalE) for in situ conversion of inexpensive UDP-glucose to UDP-galactose providing a cost efficient strategy.
Both enzymes, β4GalT-GalE and β3GlcNAcT, were over expressed in E. coli AD202 in a large-scale fermentor (100 L). Bacteria were cultured in 2YT medium and induced with iso-propyl-thiogalactopyranoside (IPTG) to ultimately produce 8-10 g of bacterial cell paste / L cell media. The enzymes were then released from the cells by a microfluidizer and were solubilized in Tris buffer (25 mM, pH 7.5) containing manganese chloride (10 mM) and Triton X (0.25%) to reach enzymatic activities of about 50 U/L and 115 U/L of cell culture β4GalT-GalE and β3GlcNAcT, respectively.
The structures of these disaccharides are provided below. [drawing 23] [drawing 24] [drawing 25] [drawing 26]
Adding the hydrophobic para-nitrophenyl ring as an aglycon to the reducing end of the acceptors enhanced the activity of the enzyme up to 10 fold (compare 4 with 5 and 6 with 7). The increase in the enzyme activity by adding a hydrophobic aglycon to the acceptor sugar, though to the lesser extent, has also been shown for β4GalT (compare 12 with 13,14). The relaxed substrate specificity of these enzymes makes them very useful for preparative synthesis of various carbohydrate structures, including poly-N-acetyllactosamines. Table 4. Selected β4GalT-GalE and β3GlcNAcT Specificity Data

2G12 anti-HIV antibody = assay: 2G12 binding to glycan array printed on glass slide; parameters: species or system human; settings: for Rel. spec. (relative binding activity of 2G12): glass-slide glycan array, 2G12 pre-complexed with secondary anti-IgG-FITC; for binding of 2G12 antibodies (in words): glycan array, initial experiments
Protocol: Construction of a glycan array printed on a glass slide: The library of carbohydrate structures was obtained through chemical and chemo-enzymatic synthesis as described above, as well as natural sources. This compound library contained a N-hydroxy succinimide (NHS)-reactive primary amino group, which was printed on a commercial NHS-activated glass surface (Accelr8 Technology Corporation, Denver, CO) using a microarray gene printer (TSRI).
Each glycan type was printed (≈0.5nL/spot) at various concentrations (10-100 µM) and each concentration in a replicate of six. Slides were further incubated with ethanolamine buffer to deactivate remaining NHS functional groups.
The 2G12 antibody was pre-complexed (for 10 min) with secondary human anti-IgG-FITC (2:1, 20µg/mL) prior to application to the glycan array. After incubation with the 2G12 antibodies, the array was washed by dipping the slide in buffer and water.

OC[C@H]1O[C@@H](O[C@H]2[C@H](O)[C@@H](O)[C@H](O)O[C@@H]2CO)[C@H](O)[C@@H](O)[C@H]1O [Acceptor 4, Galβ(1-4)Glc, reference compound]
Relative enzyme activity (%) β(1-3)GlcNAcT-activity (β3GlcNAcT): 100%

CC(=O)N[C@H]1C(O)O[C@H](CO)[C@@H](O[C@@H]2O[C@H](CO)[C@H](O)[C@H](O)[C@H]2O)[C@@H]1O (some centres unmarked) [Compound 6]
Relative enzyme activity (%) β(1-3)GlcNAcT-activity (β3GlcNAcT): 7%

NCCCO[C@H]1O[C@H](CO)[C@@H](O)[C@H](O[C@H]2O[C@H](CO)[C@@H](O)[C@H](O)[C@@H]2O[C@H]2O[C@H](CO)[C@@H](O)[C@H](O)[C@@H]2O[C@H]2O[C@H](CO)[C@@H](O)[C@H](O)[C@@H]2O)[C@@H]1O [Glycan 135]
Rel. spec. (relative binding activity of 2G12) (2G12 anti-HIV antibody): +++ (+++ >25,000)

NCCCO[C@H]1O[C@H](CO[C@H]2O[C@H](CO)[C@@H](O)[C@H](O)[C@@H]2O[C@H]2O[C@H](CO)[C@@H](O)[C@H](O)[C@@H]2O)[C@@H](O)[C@H](O[C@H]2O[C@H](CO)[C@@H](O)[C@H](O)[C@@H]2O[C@H]2O[C@H](CO)[C@@H](O)[C@H](O)[C@@H]2O)[C@@H]1O [Glycan 136]
Rel. spec. (relative binding activity of 2G12) (2G12 anti-HIV antibody): +++ (+++ >25,000)

NCCCO[C@H]1O[C@H](CO[C@H]2O[C@H](CO)[C@@H](O)[C@H](O)[C@@H]2O[C@H]2O[C@H](CO)[C@@H](O)[C@H](O)[C@@H]2O[C@H]2O[C@H](CO)[C@@H](O)[C@H](O)[C@@H]2O)[C@@H](O)[C@H](O[C@H]2O[C@H](CO)[C@@H](O)[C@H](O)[C@@H]2O)[C@@H]1O [Glycan 138]
Rel. spec. (relative binding activity of 2G12) (2G12 anti-HIV antibody): +++ (+++ >25,000)

Galβ(1-4)GlcNAc [Acceptor 6, reference compound]
Relative enzyme activity (%) β(1-3)GlcNAcT-activity (β3GlcNAcT): 7-8%

Man-8#aa Man8-aminoacid [Glycan 144]
binding of 2G12 antibodies (in words) (2G12 anti-HIV antibody): Binding was observed

Man-9#aa Man9-aminoacid [Glycan 145]
binding of 2G12 antibodies (in words) (2G12 anti-HIV antibody): smaller level of binding
